Results as given in patent US7253207B2, “Quinones as disease therapies” (Cellgate, Inc., priority 1999, dated 2007).
Where two headings read alike, the source gives them in different places. *1 amine or outer side, *2 acyl side, *3 side chain or, on linkers, in order; H or OH if unused. Where a SMILES comes first, the peptide text is derived from it. [ ]: non-standard residue; d: D form. The star is where a group is joined. X1 = CC1(C)OC2=C(CC1O*)C(=O)C(=O)c1ccccc12; Morpholide = C1CN(*)CCO1; CO = O=C([*:1])[*:2]; βAla = NCCC(=O)O

Columns and labels:
[1] = test system: DUPRO; assay: MTT assay, DUPRO prostate tumor cells; format: cell-based, human; details: Table 1, treatment time not stated
Method: (§1) Cell Culture: The human lung adenocarcinoma cell line, A549, and human prostatic cancer cell line, DUPRO, were a gift from Dr. M. Eileen Dolan, University of Chicago, Department of Medicine. A549 was grown in Ham's F-12K medium (Fisher Scientific, Itasca, Ill.) supplemented with 10% fetal bovine serum and 2 mM L-glutamine. DUPRO was grown in RPMI-1640 supplemented with 10% fetal bovine serum. The human colon carcinoma cell line, HT29, and the human breast carcinoma cell line, MCF7, were obtained from the American Type Culture Collection, Rockville, Md. HT29 cells were grown in McCoy's 5A medium (Gibco, BRL, Gaithersburg, Md.) supplemented with 10% fetal bovine serum. MCF7 cells were grown in Richter's Improved Modified Eagle's medium supplemented with 10% fetal bovine serum and 2.2 g/L sodium bicarbonate. The human prostate adenocarcinoma cell lines, LNCAP, PC-3 and DU145, were gifts from Dr. George Wilding, University of Wisconsin Comprehensive Cancer Center and the Department of Medicine, and were grown in Dulbecco's Modified Eagle's medium supplemented with a 5% fetal bovine serum. The malignant glioma cell line, U251MG NCI was obtained from the brain tumor tissue bank at the University of California, San Francisco Department of Neurosurgery, and was grown in Dulbecco's Modified Eagle's medium supplemented with 10% fetal bovine serum. DUPRO, A549 and MCF7 cells were grown in 100 units/mL penicillin and 100 μg/mL streptomycin. HT29 and U251MG NCI cells were grown in 50 g/μL gentamycin. LNCAP, PC-3 and DU145 cells were maintained in 1% antibiotic antimycotic solution (Sigma, St. Louis, Mo.). All cell cultures were maintained at 37° C. in 5% CO2/95% humidified air.
MTT assay. Exponentially growing monolayer cells were plated in 96 well plates at a density of 500 cells/well and allowed to grow for 24 h. Serially diluted drug solutions were added such that the final drug concentrations in the treatment media were between 0 and 35 μM. […] A microplate reader (E max, Molecular Devices, Sunnyvale, Calif.) set at 570 nm was used to determine the optical density. […]

[2] = test system: PC-3; assay: MTT assay, PC-3 prostate tumor cells; format: cell-based, human
Method: as §1
(§2) MTT assay. Exponentially growing monolayer cells were plated in 96 well plates at a density of 500 cells/well and allowed to grow for 24 h. Serially diluted drug solutions were added such that the final drug concentrations in the treatment media were between 0 and 35 μM. Cells were incubated with drug at either 4 hr or 72 hr. After 4 hr and 72 hr treatment, drugs were removed, fresh media (without) drug (100 uL) was added and cells were incubated for 6 days. After six days, 25 μL of a Dulbecco's phosphate-buffered saline solution containing 5 mg/mL of MTT (Thiazolyl blue) (Sigma) was added to each well and incubated for 4 h at 37° C. Then 100 μL of lysis buffer (20% sodium dodecyl sulfate, 50% N,N-dimethylformamide and 0.8% acetic acid, pH 4.7) was added to each well and incubated for an additional 22 h. A microplate reader (E max, Molecular Devices, Sunnyvale, Calif.) set at 570 nm was used to determine the optical density. Results were plotted as a ratio of the optical density in drug treated wells to the optical density in wells treated with vehicle alone. Plotting and estimation of ID50 values were accomplished with manufacturer supplied software.

[3] = test system: A549; assay: MTT assay, A549 lung tumor cells; format: cell-based; details: Homo sapiens, read-out: ID50 (μM) of different Tumor cells Lung A549
Method: as §1, §2

[4] = test system: DU145; assay: MTT assay, DU145 prostate tumor cells; format: cell-based, human; details: Table 1; for ID50 (μM) of different prostate cells DU145: MTT assay, treatment time not stated
Method: as §1, §2

[5] = test system: HT-29; assay: MTT assay, HT-29 colon tumor cells; format: cell-based; details: Homo sapiens, Table 2, treatment time not stated, read-out: ID50 (μM) of different Tumor cells Colon HT-29
Method: as §1, §2

[6] = test system: U251-MG; assay: MTT assay, U251-MG brain tumor cells; format: cell-based, human
Method: as §1, with “The malignant glioma cell line, U251MG NCI was obtained from the brain tumor tissue bank at the University of California, San Francisco Department of Neurosurgery, and was grown in Dulbecco's Modified Eagle's medium supplemented with 10% fetal bovine serum. DUPRO, A549 and MCF7 cells were grown in 100 units/mL penicillin and 100 μg/mL streptomycin. HT29 and U251MG NCI cells were grown in 50 g/μL gentamycin. LNCAP, PC-3 and DU145 cells were maintained in 1% antibiotic antimycotic solution (Sigma, St. Louis, Mo.). All cell cultures were maintained at 37° C. in 5% CO2/95% humidified air.” left out
MTT assay. […] A microplate reader (E max, Molecular Devices, Sunnyvale, Calif.) set at 570 nm was used to determine the optical density. […]

[7] = test system: MCF7; assay: MTT assay, MCF7 breast tumor cells; format: cell-based, human; details: Table 2, treatment time not stated
Method: as §1, §2

[8] = Homo sapiens, PC-3, Table 1, MTT assay, treatment time not stated, read-out: ID50 (μM) of different prostate cells PC-3
[9] = Table 2, treatment time not stated

Structure (SMILES)	IC50 [2, 8] [µM]	IC50 [3, 9] [µM]	IC50 [5] [µM]	ID50 (μM) of different Tumor cells Breast MCF7 [7] [µM]	other results
O=C1C=C(OCCCCCCO)c2ccccc2C1=O [SL-11051]	17.1	17.2	20		ID50 (μM) of different prostate cells DUPRO [1]: 19.3 µM; ID50 (μM) of different prostate cells DU145 [4]: 11.16 µM
COC(=O)c1cc(NC(=O)CCCCOC2=CC(=O)C(=O)c3ccccc32)cn1C [SL-11052]		26.9			
O=C(OCCCCCCOC1=CC(=O)C(=O)c2ccccc21)OCCCCCCOC1=CC(=O)C(=O)c2ccccc21 [SL-11053]		7.39	2.8		
CC(C)(C)C(=O)OC1=CC(=O)C(=O)c2ccccc21 [SL-11054]		> 31.2	> 31.2		
CC1(C)CCC2=C(O1)c1ccccc1C(=O)C2=O [SL-11058]					ID50 (μM) of different Tumor cells Brain U251-MG ([6]; Table 4, non-quinone compounds): >31.25 µM
O=C1C=C(OCCCCCNc2c3ccccc3nc3ccccc23)c2ccccc2C1=O [SL-11059, Acridine-quinone]	4.3	15	10.1		
Cl.O=C1C=C(OCCCCCNC2CCCCC2)c2ccccc2C1=O [SL-11060]		> 31.2	> 31.2	17.23	ID50 (μM) of different Tumor cells Brain U251-MG [6, 9]: >31.25 µM
N#Cc1ccc(OCCCCCCOC2=CC(=O)C(=O)c3ccccc32)cc1 [SL-11062]	1.71	18.6			
CN1CCN(c2ccc3nc(-c4ccc5nc(-c6ccc(O)cc6)[nH]c5c4)[nH]c3c2)CC1 [SL-11063]					IC50 ([2]; Homo sapiens, PC-3, Table 3, non-quinone structure, MTT assay, read-out: ID50 (μM) of different prostate cells PC-3): > 31.2 µM; IC50 ([3]; Table 4, non-quinone compounds): > 31.2 µM
O=C1C=C(OCCCCCCCc2ccc(Nc3c4ccccc4nc4ccccc34)cc2)c2ccccc2C1=O [SL-11064, Quinone-anilinoacridine]	0.7	9.3			ID50 (μM) of different prostate cells DUPRO [1]: 2.2 µM; ID50 (μM) of different prostate cells DU145 [4]: 0.13 µM
O=C1C=C(OCCCCCCOC2=CC(=O)c3ccccc3C2=O)c2ccccc2C1=O [SL-11065]	1.4	2.13			
O=C1C=C(OCCCCCCOc2ccc(OC3OC(CO)C(O)C(O)C3O)cc2)c2ccccc2C1=O (centres unmarked) [SL-11066]	> 31.2	> 31.2			
O=C1C=C(OCCCCCCOc2ccccc2)c2ccccc2C1=O [SL-11068]	1.5	24			
CN(C)c1cccc(OC(=O)CCCCOC2=CC(=O)C(=O)c3ccccc32)c1 [SL-11074]	4.6				
NCCCCCC(=O)OCCCCCCOC1=CC(=O)C(=O)c2ccccc21 [SL-11075]	2				
CCCCN(CC1=CC(=O)C(=O)c2ccccc21)C(C)=O [SL-11087]	2.4	19.8	6.05	4.0	
CCCCN(CC1=CC(=O)C(=O)c2ccccc21)C(=O)C(F)(F)F [SL-11088]	> 31.2	> 31.2	> 31.2	>31.25	
CCCCN/C=C1\C=C(O)C(=O)c2ccccc21 [SL-11089]	11			>31.25	
CCCCN(CC1=C(Br)C(=O)C(=O)c2ccccc21)C(C)=O [SL-11095]	4.2	> 31.2	22.1	20.6	
CCCCN(CC1=CC(=O)C(=O)c2ccccc21)C(=O)CCC(=O)N1CCOCC1 [SL-11096]	3.6	17.4	3.4	3.8	
O=C1C=C(CCCCCCCCc2ccc(Nc3c4ccccc4nc4ccccc34)cc2)c2ccccc2C1=O [SL-11125, Quinone-acridine]	5.9	28	5.7	5.1	ID50 (μM) of different prostate cells DUPRO [1]: 7.9 µM; ID50 (μM) of different prostate cells DU145 [4]: 0.13 µM
CC(C)CC(NC(=O)C(CCCCN)NC(=O)C(CO)NC(=O)N1CCOCC1)C(=O)NC(CCC(N)=O)C(=O)NCCC(=O)OC1CC2=C(OC1(C)C)c1ccccc1C(=O)C2=O (stereo not drawn) [SL-11147, Morpholino-Ser-Lys-Leu-Gln-β-Ala-β-Lapachone] ({Morpholide-CO}-SKLQ[βAla]-X1; configuration not given here)					IC50 ([2]; Table 1, 4 hr, read-out: ID50 (μM) PC-3 (4 hr)): 6.3 µM; IC50 ([2]; Table 1, 72 hr, read-out: ID50 (μM) PC-3 (72 hr)): 1.24 µM; IC50 ([4]; 4 hr, read-out: ID50 (μM) DU145 (4 hr)): 28.1 µM; IC50 ([4]; 72 hr, read-out: ID50 (μM) DU145 (72 hr)): 2.01 µM
